Data on one compound can be found in PMC10685318, “Trans-cyclosulfamidate mannose-configured cyclitol allows isoform-dependent inhibition of GH47 α-D-mannosidases through a bump–hole strategy” (Chemical Science, 2023).

The structures appear in SMILES notation. Where two headings read alike, the source gives them in different places.

The target of this assay is T1, MAN2C1 (Homo sapiens, UniProt Q9NTJ4).
T1 construct: expressed in transfected cells
T1 sequence (Q9NTJ4 1-1040): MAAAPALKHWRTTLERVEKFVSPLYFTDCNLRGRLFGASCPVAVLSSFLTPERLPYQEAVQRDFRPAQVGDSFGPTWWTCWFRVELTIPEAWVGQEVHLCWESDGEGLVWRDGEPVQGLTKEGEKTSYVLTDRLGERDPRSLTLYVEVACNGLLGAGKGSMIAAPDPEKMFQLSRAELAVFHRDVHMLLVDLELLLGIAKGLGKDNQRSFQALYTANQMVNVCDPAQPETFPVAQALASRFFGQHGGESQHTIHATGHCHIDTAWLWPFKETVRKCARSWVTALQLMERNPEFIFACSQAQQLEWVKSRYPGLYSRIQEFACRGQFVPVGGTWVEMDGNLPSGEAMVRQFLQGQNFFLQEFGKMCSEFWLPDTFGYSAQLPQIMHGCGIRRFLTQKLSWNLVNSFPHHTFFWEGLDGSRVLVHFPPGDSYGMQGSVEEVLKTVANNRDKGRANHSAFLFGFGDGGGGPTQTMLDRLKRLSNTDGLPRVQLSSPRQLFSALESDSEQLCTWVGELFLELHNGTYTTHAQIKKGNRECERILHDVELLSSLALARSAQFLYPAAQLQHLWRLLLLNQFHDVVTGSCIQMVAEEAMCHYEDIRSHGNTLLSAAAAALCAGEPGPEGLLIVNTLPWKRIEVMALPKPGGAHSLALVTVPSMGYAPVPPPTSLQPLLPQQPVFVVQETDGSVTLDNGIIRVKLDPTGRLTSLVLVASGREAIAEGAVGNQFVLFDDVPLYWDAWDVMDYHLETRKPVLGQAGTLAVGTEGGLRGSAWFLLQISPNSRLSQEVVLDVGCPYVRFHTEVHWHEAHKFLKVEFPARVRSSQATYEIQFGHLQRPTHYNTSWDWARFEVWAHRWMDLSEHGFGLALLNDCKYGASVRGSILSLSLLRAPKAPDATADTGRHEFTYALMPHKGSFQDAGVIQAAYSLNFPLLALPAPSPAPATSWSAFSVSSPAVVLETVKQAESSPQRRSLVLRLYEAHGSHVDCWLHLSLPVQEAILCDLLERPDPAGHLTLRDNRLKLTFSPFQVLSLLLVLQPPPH
As to the kind of experiment: 4-MU-α-man activity assay in overexpressed cell lysates. The format is biochemical.

A word on the IC50: it is the concentration that inhibits the measured activity by half. For `O=S1(=O)N[C@@H]2[C@@H](O)[C@@H](O)[C@H](O)[C@@H](CO)[C@H]2O1` [compound 6, 1,6-trans-manno-cyclosulfamidate], the IC50 reads like this: (Co2+ (cobalt as the metal ion), read-out: IC50 (apparent)) 3.5 ± 1.2 µM; (Zn2+ (buffer supplemented with 1 mM ZnCl2 instead of CoCl2)) “no IC50 value could be determined”; (Zn2+ (buffer supplemented with 1 mM ZnCl2 instead of CoCl2), read-out: IC50) more than 1000 µM.
